[PEt] = P-ethoxy (ethyl phosphotriester) internucleoside linkage
Assay: Adverse events in study 2003-0578 (NCI CTCAE grading)
Details: all treatment groups

BP1001: liposome-incorporated P-ethoxy antisense oligodeoxynucleotide (5′-ATATTTGGCGATGGCTTC-3′, SEQ ID NO: 1) specific to grb2 mRNA, in neutral DOPC liposomes (DNA, all [PEt], methylation of C not given here; incorporated in neutral DOPC liposomes)
AML progression, number of patients (AML at enrollment (n = 30)): 19 | Abdominal Pain ≥Grade 3, number of patients (AML at enrollment (n = 30)): 1 | Acidosis ≥Grade 3, number of patients (AML at enrollment (n = 30)): 3 | Acute kidney injury ≥Grade 3, number of patients (AML at enrollment (n = 30)): 3 | Asthenia ≥Grade 3, number of patients (AML at enrollment (n = 30)): 1 | Back Pain ≥Grade 3, number of patients (AML at enrollment (n = 30)): 1 | Blood and lymphatic system disorders ≥Grade 3, number of patients (AML at enrollment (n = 30)): 10 | Cardiac disorders ≥Grade 3, number of patients (AML at enrollment (n = 30)): 1 | Cataract ≥Grade 3, number of patients (AML at enrollment (n = 30)): 1 | Dyspnea ≥Grade 3, number of patients (AML at enrollment (n = 30)): 3 | Extremity Lower Edema ≥Grade 3, number of patients (AML at enrollment (n = 30)): 1 | Eye disorders ≥Grade 3, number of patients (AML at enrollment (n = 30)): 1 | Febrile neutropenia ≥Grade 3, number of patients (AML at enrollment (n = 30)): 3 | Gastrointestinal disorders ≥Grade 3, number of patients (AML at enrollment (n = 30)): 1 | General disorders and administration site conditions ≥Grade 3, number of patients (AML at enrollment (n = 30)): 4 | Hallucinations ≥Grade 3, number of patients (AML at enrollment (n = 30)): 1 | Heart failure ≥Grade 3, number of patients (AML at enrollment (n = 30)): 1 | Hepatic failure ≥Grade 3, number of patients (AML at enrollment (n = 30)): 2 | Hepatobiliary disorders ≥Grade 3, number of patients (AML at enrollment (n = 30)): 2 | Hypocalcemia ≥Grade 3, number of patients (AML at enrollment (n = 30)): 1 | Hypoglycemia ≥Grade 3, number of patients (AML at enrollment (n = 30)): 1 | Hypokalemia ≥Grade 3, number of patients (AML at enrollment (n = 30)): 3 | Hyponatremia ≥Grade 3, number of patients (AML at enrollment (n = 30)): 1 | Hypotension ≥Grade 3, number of patients (AML at enrollment (n = 30)): 3 | Hypovolemia ≥Grade 3, number of patients (AML at enrollment (n = 30)): 1 | Hypoxia ≥Grade 3, number of patients (AML at enrollment (n = 30)): 4 | Investigations ≥Grade 3, number of patients (AML at enrollment (n = 30)): 2 | Leukocytosis ≥Grade 3, number of patients (AML at enrollment (n = 30)): 6 | Metabolism and nutritional disorders ≥Grade 3, number of patients (AML at enrollment (n = 30)): 8 | Multi-organ failure ≥Grade 3, number of patients (AML at enrollment (n = 30)): 2 | Musculoskeletal and connective tissue disorders ≥Grade 3, number of patients (AML at enrollment (n = 30)): 1 | Neoplasms benign, malignant, and unspecified (incl. cysts and polyps) ≥Grade 3, number of patients (AML at enrollment (n = 30)): 2 | Patients with AEs ≥Grade 3, number of patients (AML at enrollment (n = 30)): 23 | Penile Pain ≥Grade 3, number of patients (AML at enrollment (n = 30)): 1 | Platelet count decreased ≥Grade 3, number of patients (AML at enrollment (n = 30)): 2 | Pleural Effusions ≥Grade 3, number of patients (AML at enrollment (n = 30)): 1 | Pneumonia ≥Grade 3, number of patients (AML at enrollment (n = 30)): 4 | Psychiatric disorders ≥Grade 3, number of patients (AML at enrollment (n = 30)): 1 | Renal and urinary disorders ≥Grade 3, number of patients (AML at enrollment (n = 30)): 3 | Reproductive system and breast disorders ≥Grade 3, number of patients (AML at enrollment (n = 30)): 1 | Respiratory distress ≥Grade 3, number of patients (AML at enrollment (n = 30)): 2 | Respiratory failure ≥Grade 3, number of patients (AML at enrollment (n = 30)): 3 | Respiratory, thoracic, and mediastinal disorders ≥Grade 3, number of patients (AML at enrollment (n = 30)): 10 | Tumor lysis syndrome ≥Grade 3, number of patients (AML at enrollment (n = 30)): 1 | Vascular disorders ≥Grade 3, number of patients (AML at enrollment (n = 30)): 3 | AML progression, number of patients (CML at enrollment (n = 5)): 5 | Abdominal Pain ≥Grade 3, number of patients (CML at enrollment (n = 5)): 0 | Acidosis ≥Grade 3, number of patients (CML at enrollment (n = 5)): 0 | Acute kidney injury ≥Grade 3, number of patients (CML at enrollment (n = 5)): 1 | Asthenia ≥Grade 3, number of patients (CML at enrollment (n = 5)): 1 | Back Pain ≥Grade 3, number of patients (CML at enrollment (n = 5)): 0 | Blood and lymphatic system disorders ≥Grade 3, number of patients (CML at enrollment (n = 5)): 2 | Cardiac disorders ≥Grade 3, number of patients (CML at enrollment (n = 5)): 1 | Cataract ≥Grade 3, number of patients (CML at enrollment (n = 5)): 0 | Dyspnea ≥Grade 3, number of patients (CML at enrollment (n = 5)): 0 | Extremity Lower Edema ≥Grade 3, number of patients (CML at enrollment (n = 5)): 0 | Eye disorders ≥Grade 3, number of patients (CML at enrollment (n = 5)): 0 | Febrile neutropenia ≥Grade 3, number of patients (CML at enrollment (n = 5)): 0 | Gastrointestinal disorders ≥Grade 3, number of patients (CML at enrollment (n = 5)): 0 | General disorders and administration site conditions ≥Grade 3, number of patients (CML at enrollment (n = 5)): 2 | Hallucinations ≥Grade 3, number of patients (CML at enrollment (n = 5)): 0 | Heart failure ≥Grade 3, number of patients (CML at enrollment (n = 5)): 1 | Hepatic failure ≥Grade 3, number of patients (CML at enrollment (n = 5)): 0 | Hepatobiliary disorders ≥Grade 3, number of patients (CML at enrollment (n = 5)): 0 | Hypocalcemia ≥Grade 3, number of patients (CML at enrollment (n = 5)): 1 | Hypoglycemia ≥Grade 3, number of patients (CML at enrollment (n = 5)): 1 | Hypokalemia ≥Grade 3, number of patients (CML at enrollment (n = 5)): 1 | Hyponatremia ≥Grade 3, number of patients (CML at enrollment (n = 5)): 1 | Hypotension ≥Grade 3, number of patients (CML at enrollment (n = 5)): 0 | Hypovolemia ≥Grade 3, number of patients (CML at enrollment (n = 5)): 0 | Hypoxia ≥Grade 3, number of patients (CML at enrollment (n = 5)): 0 | Investigations ≥Grade 3, number of patients (CML at enrollment (n = 5)): 0 | Leukocytosis ≥Grade 3, number of patients (CML at enrollment (n = 5)): 2 | Metabolism and nutritional disorders ≥Grade 3, number of patients (CML at enrollment (n = 5)): 4 | Multi-organ failure ≥Grade 3, number of patients (CML at enrollment (n = 5)): 1 | Musculoskeletal and connective tissue disorders ≥Grade 3, number of patients (CML at enrollment (n = 5)): 0 | Neoplasms benign, malignant, and unspecified (incl. cysts and polyps) ≥Grade 3, number of patients (CML at enrollment (n = 5)): 0 | Patients with AEs ≥Grade 3, number of patients (CML at enrollment (n = 5)): 4 | Penile Pain ≥Grade 3, number of patients (CML at enrollment (n = 5)): 0 | Platelet count decreased ≥Grade 3, number of patients (CML at enrollment (n = 5)): 0 | Pleural Effusions ≥Grade 3, number of patients (CML at enrollment (n = 5)): 0 | Pneumonia ≥Grade 3, number of patients (CML at enrollment (n = 5)): 0 | Psychiatric disorders ≥Grade 3, number of patients (CML at enrollment (n = 5)): 0 | Renal and urinary disorders ≥Grade 3, number of patients (CML at enrollment (n = 5)): 1 | Reproductive system and breast disorders ≥Grade 3, number of patients (CML at enrollment (n = 5)): 0 | Respiratory distress ≥Grade 3, number of patients (CML at enrollment (n = 5)): 1 | Respiratory failure ≥Grade 3, number of patients (CML at enrollment (n = 5)): 0 | Respiratory, thoracic, and mediastinal disorders ≥Grade 3, number of patients (CML at enrollment (n = 5)): 1 | Tumor lysis syndrome ≥Grade 3, number of patients (CML at enrollment (n = 5)): 2 | Vascular disorders ≥Grade 3, number of patients (CML at enrollment (n = 5)): 0 | AML progression, number of patients (MDS at enrollment (n = 4)): 2 | Abdominal Pain ≥Grade 3, number of patients (MDS at enrollment (n = 4)): 0 | Acidosis ≥Grade 3, number of patients (MDS at enrollment (n = 4)): 0 | Acute kidney injury ≥Grade 3, number of patients (MDS at enrollment (n = 4)): 0 | Asthenia ≥Grade 3, number of patients (MDS at enrollment (n = 4)): 0 | Back Pain ≥Grade 3, number of patients (MDS at enrollment (n = 4)): 0 | Blood and lymphatic system disorders ≥Grade 3, number of patients (MDS at enrollment (n = 4)): 0 | Cardiac disorders ≥Grade 3, number of patients (MDS at enrollment (n = 4)): 1 | Cataract ≥Grade 3, number of patients (MDS at enrollment (n = 4)): 0 | Dyspnea ≥Grade 3, number of patients (MDS at enrollment (n = 4)): 0 | Extremity Lower Edema ≥Grade 3, number of patients (MDS at enrollment (n = 4)): 0 | Eye disorders ≥Grade 3, number of patients (MDS at enrollment (n = 4)): 0 | Febrile neutropenia ≥Grade 3, number of patients (MDS at enrollment (n = 4)): 0 | Gastrointestinal disorders ≥Grade 3, number of patients (MDS at enrollment (n = 4)): 0 | General disorders and administration site conditions ≥Grade 3, number of patients (MDS at enrollment (n = 4)): 0 | Hallucinations ≥Grade 3, number of patients (MDS at enrollment (n = 4)): 0 | Heart failure ≥Grade 3, number of patients (MDS at enrollment (n = 4)): 1 | Hepatic failure ≥Grade 3, number of patients (MDS at enrollment (n = 4)): 0 | Hepatobiliary disorders ≥Grade 3, number of patients (MDS at enrollment (n = 4)): 0 | Hypocalcemia ≥Grade 3, number of patients (MDS at enrollment (n = 4)): 0 | Hypoglycemia ≥Grade 3, number of patients (MDS at enrollment (n = 4)): 0 | Hypokalemia ≥Grade 3, number of patients (MDS at enrollment (n = 4)): 0

— US20200032271A1, “COMBINATION THERAPY WITH LIPOSOMAL ANTISENSE OLIGONUCLEOTIDES” (Bio-Path Holdings, Inc., priority 2016, published 2020)
